Results: patent US20170313664A1, “NOVEL FORM OF PYRIMIDINE COMPOUND HAVING DIBENZYLAMINE STRUCTURE” (KOWA COMPANY, LTD., priority 2013, published 2017)

Test: Heat stability test (remaining percentage by HPLC peak area after preservation in a glass bottle)
Type: physicochemical
Conditions: for Remaining percentage (%) of pyrimidine compound (1): HPLC area percentage, 242 nm
Protocol: A test compound was placed in a glass bottle, and it was then preserved for a predetermined period of time under temperature conditions of 80° C., 100° C., or 120° C. Thereafter, the remaining percentage (%) of the pyrimidine compound (1) in the test compound was measured.
The remaining percentage was obtained by measuring the rate of the pyrimidine compound (1) contained in the test compound according to high performance liquid chromatography and expressing the measured value as a peak area percentage. In the measurement according to high performance liquid chromatography, an ODS column was used as a column, and a mixture of two solvents, namely, a 0.1% TFA aqueous solution and a 0.1% TFA acetonitrile solution, was used as a solvent. The detection wavelength was set at 242 nm.
From the obtained area percentage of the pyrimidine compound (1), the remaining percentage was calculated according to the following calculation formula.
Remaining percentage (%)=Area percentage of pyrimidine compound (1) after preservation/area percentage of pyrimidine compound (1) before preservation×100
As test compounds, the crystal obtained in Example 1-3 (a crystal of the pyrimidine compound (1) hydrochloride) and a free form of the pyrimidine compound (1) were used.

[1] = After preservation at 80° C. for 72 hours
[2] = After preservation at 100° C. for 24 hours
[3] = After preservation at 120° C. for 16 hours

Row | Structure (SMILES) | Remaining percentage (%) of pyrimidine compound (1) [1] [%] | Remaining percentage (%) of pyrimidine compound (1) [2] [%] | Remaining percentage (%) of pyrimidine compound (1) [3] [%] | Heat stability (overall assessment) (conclusion from the test results of Table 8 (80-120° C.))
1 | CCN(C[C@H]1CC[C@H](CC(=O)O)CC1)c1ccc(C(F)(F)F)cc1CN(c1ncc(OCCS(C)(=O)=O)cn1)[C@@H](C)c1cc(C(F)(F)F)cc(C(F)(F)F)c1.Cl [(S)-trans-{4-[({2-[({1-[3,5-bis(trifluoromethyl)phenyl]ethyl}{5-[2-(methylsulfonyl)ethoxy]pyrimidin-2-yl}amino)methyl]-4-(trifluoromethyl)phenyl}(ethyl)amino)methyl]cyclohexyl}acetic acid monohydrochloride] | 100.0 | 100.0 | 99.5 | excellent heat stability
2 | CCN(C[C@H]1CC[C@H](CC(=O)O)CC1)c1ccc(C(F)(F)F)cc1CN(c1ncc(OCCS(C)(=O)=O)cn1)[C@@H](C)c1cc(C(F)(F)F)cc(C(F)(F)F)c1 [Free form of pyrimidine compound (1), (S)-trans-{4-[({2-[({1-[3,5-bis(trifluoromethyl)phenyl]ethyl}{5-[2-(methylsulfonyl)ethoxy]pyrimidin-2-yl}amino)methyl]-4-(trifluoromethyl)phenyl}(ethyl)amino)methyl]cyclohexyl}acetic acid] | 99.5 | 89.3 | 71.5 | 
